Values quoted from earlier work as cited in US12251425B2, “Sustained-release lipid preformulation and pharmaceutical composition for sustained-release injection in form of lipid solution containing same” (IMDPHARM INC., priority 2019, dated 2025).

Conditions: 25° C.

- viscosity: about 1000 mPa·s
Substance: sorbitan monooleate
